We go through five molecules from ChEMBL document CHEMBL1629610, “A 6-aminoquinolone compound, WC5, with potent and selective anti-human cytomegalovirus activity” (Antimicrob Agents Chemother, 2009).

Each structure is given as a SMILES string. Active and inactive are the calls of the source. The calls are words filed in the database; no cut-off is given here.

Data set [1] can be described thus: Cytotoxicity against human foreskin fibroblast after 5 days by MTT assay. The data set is classed as cell-based. The note with it: human foreskin fibroblasts (HFF). (Tetrazolium dyes change colour on reduction, which living cells bring about.)
A short description of data set [2]: Selectivity index, ratio of CC50 for Human foreskin fibroblast to EC50 for Human cytomegalovirus AD169.
Data set [3] is described as follows: Cytotoxicity against human BC-3 cells by MTT assay. The data set is classed as cell-based.
Data set [4] is described as follows: Cytotoxicity against mouse NIH/3T3 cells by MTT assay. The data set is classed as cell-based, NIH3T3.
Data set [5] can be described thus: Selectivity index, ratio of CC50 for human HSB-2 cells to EC50 for Human herpesvirus 6A GS. The note with it: read-out: Ratio CC50/EC50. The class given is toxicity, cell-based.
A short description of data set [6]: Selectivity index, ratio of CC50 for human MOLT4 cells to EC50 for Human herpesvirus 6B Z29. The class given is toxicity, cell-based, MOLT-4. The settings on record: read-out: Ratio CC50/EC50.
A short description of data set [7]: Selectivity index, ratio of CC50 for human BC-3 cells to EC50 for Human herpesvirus 8. The class given is toxicity, cell-based. The note with it: read-out: Ratio CC50/EC50.
Data set [8] can be described thus: Selectivity index, ratio of CC50 for mouse NIH 3T3 cells to EC50 for Murine cytomegalovirus. The settings on record: read-out: Ratio CC50/EC50. The class given is toxicity, cell-based, NIH3T3.
Data set [9] in a line: Ratio of EC50 for Human cytomegalovirus AD169 to EC50 for Murine cytomegalovirus. The class given is functional.
Data set [10] has as its system Human betaherpesvirus 5. Kind of data set: Antiviral activity against Human cytomegalovirus AD169 infected in human foreskin fibroblast by plaque reduction assay. The data set is classed as functional, organism-based. The note with it: Human betaherpesvirus 5, AD169. (Plaque reduction counts the foci of infection that form in a cell layer.)
For data set [11], the system named is Human betaherpesvirus 5. Kind of data set: Antiviral activity against GCV-resistant Human cytomegalovirus 759rD100 harboring 4-aa deletion (638-641) in UL97 kinase and DNA polymerase A987G mutant infected in human foreskin fibroblast by plaque reduction assay. The data set is classed as functional, organism-based. The note with it: Human betaherpesvirus 5, 759rD100.

Data set [12] relates to Human betaherpesvirus 5. Nature of the data set: Antiviral activity against Human cytomegalovirus AD169 infected in human […] cells assessed as induction of GFP-tagged viral immediate early gene expression at 50 uM after 48 hrs by flow cytometry. The data set is classed as functional, organism-based. A general note: Flow cytometry measures light scatter and fluorescence of single cells or particles in a stream.

The subject of data set [13] is Human betaherpesvirus 5. Nature of the data set: Antiviral activity against Human cytomegalovirus infected in human […] cells transfected with pcDNA3.1-HIV1 LTR-GFP assessed as induction of GFP-tagged viral immediate early gene expression at 50 uM after 48 hrs by transactivation assay. The note with it: AD169. The data set is classed as functional, organism-based.

In data set [14] the test system is Human betaherpesvirus 5. Nature of the data set: Antiviral activity against Human cytomegalovirus infected in human […] cells transfected with pcDNA3.1-human EF1alpha-GFP assessed as induction of GFP-tagged viral immediate early gene expression at 50 uM after 48 hrs by transactivation assay. The data set is classed as functional, organism-based. The settings on record: AD169.

Data set [15] has as its system Human betaherpesvirus 5. Kind of data set: Antiviral activity against Human cytomegalovirus infected in human […] cells transfected with pcDNA3.1-human GADPH-GFP assessed as induction of GFP-tagged viral immediate early gene expression at 50 uM after 48 hrs by transactivation assay. The class given is functional, organism-based. The settings on record: AD169.
Data set [16] relates to HSB-2. Nature of the data set: Antiviral activity against Human herpesvirus 6A GS infected in human HSB-2 cells assessed as inhibition of virus-induced cytopathic effect by microscopic estimation. The note with it: Human herpesvirus 6 (strain GS). The data set is classed as functional, cell-based.
Data set [17] has as its system Human betaherpesvirus 5. Nature of the data set: Antiviral activity against PFA-, acyclovir-resistant Human cytomegalovirus D100 harboring mutation in DNA polymerase infected in human foreskin fibroblast by plaque reduction assay. The note with it: Human betaherpesvirus 5, D100. The data set is classed as functional, organism-based.
Data set [18] concerns Human betaherpesvirus 5. Nature of the data set: Antiviral activity against GDG-, GCV-resistant Human cytomegalovirus K17 harboring 4-aa deletion (638-641) in UL97 kinase infected in human foreskin fibroblast by plaque reduction assay. The class given is functional, organism-based. The settings on record: Human betaherpesvirus 5, K17.
For data set [19], the system named is Human betaherpesvirus 5. Nature of the data set: Antiviral activity against GDG-, GCV-,CDV-resistant Human cytomegalovirus P53 harboring DNA polymerase A987G mutant gene infected in human foreskin fibroblast by plaque reduction assay. The data set is classed as functional, organism-based. The note with it: Human betaherpesvirus 5, P53.
Data set [20] in a line: Antiviral activity against Human herpesvirus 6A GS infected in human HSB-2 cells assessed as inhibition of virus DNA replication after 12 days by quantitative real time PCR. The class given is functional, cell-based, Human herpesvirus 6 (strain GS). The settings on record: Human betaherpesvirus 6A, HSB2, 288 h.
The subject of data set [21] is MOLT-4. Nature of the data set: Antiviral activity against Human herpesvirus 6B Z29 infected in human MOLT4 cells assessed as inhibition of virus-induced cytopathic effect by microscopic estimation. The data set is classed as functional, cell-based. The note with it: Human herpesvirus 6 strain Z29.
The nature of data set [22]: Antiviral activity against Human herpesvirus 6B Z29 infected in human MOLT4 cells assessed as inhibition of virus DNA replication after 12 days by quantitative real time PCR. The settings on record: Human betaherpesvirus 6B, MOLT-4, 288 h. The data set is classed as functional, cell-based, Human herpesvirus 6 strain Z29.
Data set [23] deals with Human gammaherpesvirus 8. Kind of data set: Antiviral activity against Human herpesvirus 8 infected in human BC-3 cells assessed as inhibition of virus-induced cytopathic effect by microscopic estimation. The class given is functional, organism-based.
In data set [24] the test system is Human gammaherpesvirus 8. Kind of data set: Antiviral activity against Human herpesvirus 8 infected in human BC-3 cells assessed as inhibition of virus DNA replication after 12 days by quantitative real time PCR. The class given is functional, organism-based. The note with it: Human gammaherpesvirus 8, BC-3, 288 h.
Data set [25] is described as follows: Antiviral activity against Murine cytomegalovirus Smith infected in mouse NIH-3T3 cells assessed as inhibition of virus DNA replication after 12 days by plaque reduction assay. The class given is functional, cell-based, Murine cytomegalovirus (strain Smith). The note with it: Murid betaherpesvirus 1, NIH3T3, 288 h.
Data set [26] is described as follows: Cytotoxicity against human HSB2 cells by MTT assay. The data set is classed as cell-based, CCRF-HSB-2.
A short description of data set [27]: Cytotoxicity against human MOLT4 cells by MTT assay. The class given is cell-based, MOLT-4.
Data set [28] deals with Human betaherpesvirus 5. Nature of the data set: Antiviral activity against Human cytomegalovirus AD169 infected in human foreskin fibroblast assessed as inhibition of viral replication after 10 days by plaque reduction assay. The data set is classed as functional, organism-based. The note with it: Human betaherpesvirus 5, AD169, 240 h.
Data set [29] has as its system Human betaherpesvirus 5. Kind of data set: Antiviral activity against Human cytomegalovirus AD169 infected in human […] cells assessed as induction of GFP-tagged viral immediate early gene expression at 0.5 uM after 48 hrs by flow cytometry. The class given is functional, organism-based.
For data set [30], the system named is Human betaherpesvirus 5. Kind of data set: Antiviral activity against Human cytomegalovirus infected in human […] cells transfected with pcDNA3.1-HIV1 LTR-GFP assessed as induction of GFP-tagged viral immediate early gene expression at 0.5 uM after 48 hrs by transactivation assay. The data set is classed as functional, organism-based. The settings on record: AD169.

Data set [31] relates to Human betaherpesvirus 5. Kind of data set: Antiviral activity against Human cytomegalovirus infected in human […] cells transfected with pcDNA3.1-human EF1alpha-GFP assessed as induction of GFP-tagged viral immediate early gene expression at 0.5 uM after 48 hrs by transactivation assay. The data set is classed as functional, organism-based. The note with it: AD169.
Data set [32] deals with Human betaherpesvirus 5. Kind of data set: Antiviral activity against Human cytomegalovirus infected in human […] cells transfected with pcDNA3.1-human GADPH-GFP assessed as induction of GFP-tagged viral immediate early gene expression at 0.5 uM after 48 hrs by transactivation assay. The class given is functional, organism-based. The settings on record: AD169.

`Cn1cc(C(=O)O)c(=O)c2cc(N)c(N3CCN(c4ccccn4)CC3)cc21`: the midpoint of cytotoxicity in [1], the CC50 at 120 h, lay at 54 µM. Also, the “Ratio CC50/EC50” value in data set [2] amounted to 77.
For `CC(C)(C)n1cc(C(=O)O)c(=O)c2cc(N)c(N3CCN(c4ccccn4)CC3)cc21` the same measures were not below 475 µM and “>=13”.
On to `Nc1cc2c(=O)c(C(=O)O)cn(C3CC3)c2cc1N1CCN(c2ccccn2)CC1`, for which the 50% cytotoxic concentration (CC50) in [3] amounted to 47 µM; in data set [4], 275 µM; in data set [26] it was 32 µM; in [27], 24 µM. Besides, the selectivity ratio in data set [5] is 6; in data set [6], 7; in data set [7], 3; in data set [8], 25. Moreover, in data set [9], the “fold change (FC)” value is reported as 10. The concentration giving a half-maximal response (EC50) in data set [10] stood at 0.9 µM; in [11] it was 0.9 µM; in [17] it was 1.1 µM; in data set [18], 1.5 µM; in [19] it was 1 µM; in data set [20], 5.1 µM. Further, the concentration for a half-maximal effect (EC50) in data set [22] was 3.3 µM; in data set [24] it was 14.2 µM; in data set [25] it was 10.8 µM. The molecule further displayed a CC50 at 120 h in [1] of 431 µM. The result in [12], in data set [13], in data set [14] and in data set [15] was inactive. Further, the result in data set [16], in [21] and in data set [23] was Active.
Consider `Nc1nc2c(ncn2COC(CO)CO)c(=O)[nH]1` [GANCICLOVIR], for which the concentration for a half-maximal effect (EC50) in [28] was 1.9 µM. The molecule further had a half-maximal cytotoxic concentration (CC50) at 120 h in data set [1] of 550 µM.
With `Nc1cc2c(=O)c(C(=O)O)cn(C3CC3)c2cc1N1CCN(c2nc3ccccc3s2)CC1`, the CC50 at 120 h in data set [1] was determined as 4.5 µM. The result in data set [29], in data set [30], in [31] and in [32] was Active.

By CC50 is commonly meant the concentration giving 50% cytotoxicity. By EC50 is commonly meant the concentration giving half of the maximal effect.
